According to ChEMBL document CHEMBL1201862, “PubChem BioAssay data set” (2004):
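How tested: cells in 96-well plates exposed to compound for 48 hours at five concentrations. GI50 = concentration required for 50% inhibition of growth.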 Calls of active or inactive are those of the source. Cut-off read from the data, not from the text of the source: active = GI50 up to about 1.1 µM and inactive = higher.

What was measured:
Assay in all cases: DTP human tumour cell line panel, 48 h
[1] = test system: U-251
[2] = test system: A498
[3] = test system: EKVX
[4] = test system: PC-3
[5] = test system: COLO 205
[6] = test system: SK-MEL-5
[7] = test system: MDA-MB-435
[8] = test system: 786-0
[9] = test system: BT-549
[10] = test system: SF-268
[11] = test system: T47D
[12] = test system: HCC 2998
[13] = test system: MDA-MB-231
[14] = test system: Malme-3M
[15] = test system: SF-295
[16] = test system: UACC-257
[17] = test system: K562
[18] = test system: DU-145
[19] = test system: OVCAR-3
[20] = test system: HCT-116
[21] = test system: CAKI-1
[22] = test system: NCI/ADR-RES
[23] = test system: HOP-62
[24] = test system: HL-60
[25] = test system: HOP-92
[26] = test system: IGROV-1
[27] = test system: SNB-19
[28] = test system: ACHN
[29] = test system: SNB-75
[30] = test system: UACC-62
[31] = test system: NCI-H23
[32] = test system: LOX IMVI
[33] = test system: MCF7
[34] = test system: OVCAR-4
[35] = test system: SW-620
[36] = test system: RXF 393
[37] = test system: TK-10
[38] = test system: KM12
[39] = test system: SF-539
[40] = test system: UO-31
[41] = test system: Hs-578T
[42] = test system: SN12C
[43] = test system: HCT-15
[44] = test system: SK-MEL-28
[45] = test system: SK-MEL-2
[46] = test system: OVCAR-8
[47] = test system: MDA-N
[48] = test system: SR
[49] = test system: A549
[50] = test system: OVCAR-5
[51] = test system: HT-29
[52] = test system: NCI-H522
[53] = test system: NCI-H226
[54] = test system: NCI-H460
[55] = test system: M14
[56] = test system: SK-OV-3
[57] = test system: RPMI-8226
[58] = test system: MOLT-4
[59] = test system: CCRF-CEM

Measured: GI50

O=C(Oc1ccc(S(=O)(=O)F)cc1F)c1ccccc1Cl
inactive: [1] 35.2 µM | [2] 57.5 µM | [3] 24.4 µM | [4] 37.8 µM | [5] 19.5 µM | [6] 16.2 µM | [7] 29.6 µM | [8] 33.7 µM | [9] 39.2 µM | [10] 32.5 µM | [11] 31.5 µM | [12] 42.6 µM | [13] 23.8 µM | [14] 31.8 µM | [15] 32.1 µM | [16] 27.6 µM | [17] 42.1 µM | [18] 28.1 µM | [19] 29.9 µM | [20] 47.2 µM | [21] 64.9 µM | [22] 35.2 µM | [23] 34.8 µM | [24] 35.6 µM | [25] 20.2 µM | [26] 30.8 µM | [27] 30.5 µM | [28] 56 µM | [29] 24.9 µM | [30] 33.6 µM | [31] 23.9 µM | [32] 31.8 µM | [33] 29.5 µM | [34] 30.1 µM | [35] 44.3 µM | [36] 21.3 µM | [37] 43.1 µM | [38] 30.4 µM | [39] 22.5 µM | [40] 18.5 µM | [41] 25.2 µM | [42] 31.5 µM | [44] 74 µM | [45] 54.5 µM | [46] 30.8 µM | [47] 33.3 µM | [48] 24.5 µM | [49] 35.5 µM | [50] 30.9 µM | [51] 27 µM | [52] 18.3 µM | [53] 31 µM | [54] 27.3 µM | [55] 30.8 µM | [56] 98.9 µM | [57] 21.1 µM
37.5 µM: [43]

O=C(NNCc1ccco1)c1cc2ccccc2[nH]1
active: [33] 0.133 µM
> 87.5 µM: [43]
inactive: [2] > 100 µM | [3] 61.5 µM | [4] > 91 µM | [5] > 100 µM | [6] > 100 µM | [7] > 85.5 µM | [8] > 51.5 µM | [9] > 52.2 µM | [10] 38.8 µM | [11] 13.5 µM | [12] > 36.9 µM | [13] > 100 µM | [14] > 100 µM | [58] > 100 µM | [15] 91.8 µM | [16] > 62.5 µM | [17] > 100 µM | [18] > 100 µM | [19] > 55.6 µM | [20] > 86.1 µM | [21] > 100 µM | [22] > 52.4 µM | [23] > 52.6 µM | [24] > 29.1 µM | [25] 48 µM | [26] 50.7 µM | [27] > 80.2 µM | [28] > 54.7 µM | [29] 47.9 µM | [30] > 100 µM | [31] > 61.9 µM | [32] > 100 µM | [59] > 100 µM | [34] > 39.1 µM | [35] > 100 µM | [36] > 100 µM | [37] > 58.1 µM | [38] 65.8 µM | [39] > 61.9 µM | [40] > 74.6 µM | [41] 14.9 µM | [42] > 61 µM | [44] > 100 µM | [45] > 100 µM | [46] > 53.1 µM | [47] > 100 µM | [48] > 78.9 µM | [49] > 100 µM | [50] > 100 µM | [51] > 86.9 µM | [52] 34.3 µM | [53] > 100 µM | [54] > 71.4 µM | [55] > 94 µM | [56] > 56 µM | [57] > 100 µM

Cc1cnc2nc(-c3ccc(F)cc3)cc(O)c2c1
inactive: [1] 23.1 µM | [2] 25.4 µM | [3] 30.9 µM | [4] 28.6 µM | [5] 7.64 µM | [6] 26.6 µM | [7] 2.81 µM | [8] 32.5 µM | [9] > 100 µM | [10] 67.9 µM | [11] 39.2 µM | [12] 43.5 µM | [13] > 73.1 µM | [14] 33.9 µM | [58] 34.1 µM | [15] 25.9 µM | [16] > 75.2 µM | [17] 4.52 µM | [18] 43 µM | [19] 27.5 µM | [20] 18.7 µM | [21] 50.9 µM | [22] 27.2 µM | [23] 37.5 µM | [24] 3.26 µM | [25] 33.2 µM | [26] 29.2 µM | [27] 35.4 µM | [28] 57.5 µM | [29] 20.1 µM | [30] 21.4 µM | [31] 41.3 µM | [32] 40.4 µM | [33] 47.5 µM | [59] 25.6 µM | [34] 48.6 µM | [35] 19 µM | [36] 31.3 µM | [37] 48 µM | [38] 5.66 µM | [39] 26.6 µM | [40] 48.2 µM | [41] 24.1 µM | [42] 67.6 µM | [44] > 87.1 µM | [45] 25.4 µM | [46] 66.4 µM | [47] 2.72 µM | [48] 5.14 µM | [49] 42.4 µM | [50] 51.4 µM | [51] 26.4 µM | [52] 13 µM | [53] 27.1 µM | [54] 19.1 µM | [55] 34.6 µM | [56] 21.6 µM | [57] 21.1 µM
7.66 µM: [43]

Nc1cc2c(c3ccccc13)C(CCl)CN2C(=O)c1cc2cc(NC(=O)c3cc4ccccc4o3)ccc2[nH]1 (configuration not stated)
0.00382 µM: [43]
active: [1] 0.00281 µM | [2] 0.00184 µM | [3] 0.11 µM | [4] 0.00513 µM | [5] 0.0056 µM | [6] 0.000787 µM | [7] 0.0055 µM | [8] 0.00121 µM | [9] 0.00126 µM | [10] 0.00195 µM | [11] 0.00158 µM | [12] 0.00307 µM | [13] 0.0221 µM | [14] 0.00213 µM | [58] 0.00046 µM | [15] 0.11 µM | [16] 0.00627 µM | [18] 0.000679 µM | [19] 0.00885 µM | [20] 0.00254 µM | [21] 0.000301 µM | [22] 0.00136 µM | [23] 0.000891 µM | [24] 0.000264 µM | [25] 0.0357 µM | [26] 0.00578 µM | [27] 0.0124 µM | [28] 0.000492 µM | [29] 0.00294 µM | [30] 0.00304 µM | [31] 0.000551 µM | [32] 0.00262 µM | [33] 0.00075 µM | [59] 0.00194 µM | [34] 0.00209 µM | [35] 0.00456 µM | [36] 0.11 µM | [37] 0.00429 µM | [38] 0.00296 µM | [39] 0.11 µM | [40] 0.00128 µM | [41] 0.0169 µM | [42] 0.00345 µM | [44] 0.0123 µM | [45] 0.00286 µM | [46] 0.000408 µM | [47] 0.00817 µM | [48] 0.47 µM | [49] 0.000891 µM | [50] 0.00753 µM | [51] 0.00144 µM | [52] 0.000925 µM | [53] 0.11 µM | [54] 0.000308 µM | [55] 0.00455 µM | [56] 0.11 µM | [57] 0.228 µM
